In brackets after ≈: the same amount, converted by molar mass.
Experiments:
[1] = Plasma protein binding, mouse; assay type: in vitro ADME; settings: read-out: Plasma protein binding (h/r/m, %): m
[2] = Solubility; assay type: physicochemical; settings: aqueous buffer; at pH 7.4
[3] = target: T1, recombinant human MetAP2 (Homo sapiens, UniProt P50579); experiment: Recombinant human MetAP2 inhibition assay (MAS substrate, Amplex red fluorescence); assay type: biochemical; settings: first value of the cell; read-out: MetAP2/MetAP1 IC50 (nM): MetAP2
T1 construct: made in house; host or cells: Sf9 insect cells
T1 sequence (P50579 whole entry): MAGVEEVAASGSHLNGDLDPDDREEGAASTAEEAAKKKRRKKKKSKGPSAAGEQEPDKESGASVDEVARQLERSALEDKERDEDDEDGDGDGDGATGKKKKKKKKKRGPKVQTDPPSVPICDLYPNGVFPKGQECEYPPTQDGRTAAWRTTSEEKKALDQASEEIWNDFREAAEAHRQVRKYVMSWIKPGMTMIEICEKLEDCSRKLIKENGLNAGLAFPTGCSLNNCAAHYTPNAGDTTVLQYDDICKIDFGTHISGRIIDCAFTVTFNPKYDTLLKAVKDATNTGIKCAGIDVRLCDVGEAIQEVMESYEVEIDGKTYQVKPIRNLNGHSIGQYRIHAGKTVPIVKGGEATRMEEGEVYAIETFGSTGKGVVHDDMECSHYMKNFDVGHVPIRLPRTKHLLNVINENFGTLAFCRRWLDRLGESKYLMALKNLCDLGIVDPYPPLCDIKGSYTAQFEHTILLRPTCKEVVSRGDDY
Procedure: Compounds are tested for their capacity to inhibit recombinant human MetAP2 activity using the following assay.
Human recombinant MetAP2 expressed in Sf9 cells followed by affinity purification and EDTA treatment to remove endogenous active site cation was dialysed against MnCl2 to produce the manganese enzyme used in the assay. The assay was carried out for 30 minutes at 25° C. in 50 mM HEPES buffer containing 100 mM NaCl, pH 7.5 the presence of 0.75 mM Methionine-Alanine-Serine (MAS) substrate and 50 µg/ml amino acid oxidase using a dilution of purified MetAP2 giving >3-fold signal: noise. Cleavage of the substrate by MetAP2 and oxidation of free methionine by amino acid oxidase was detected and quantified using fluorescence generated by Amplex red (10-acetyl-3,7-dihydroxyphenoxazine) in combination with horseradish peroxidase which detects H2O2 released during the oxidation step. The fluorescent signal was detected using a multiwell fluorimeter. Compounds were diluted in DMSO prior to addition to assay buffer, the final DMSO concentration in the assay being 1%.
IC50 values are calculated using the XLfit software package (version 2.0.5).

[4] = i.v. and p.o. exposure study, mouse; assay type: in vivo
Procedure: Mouse, rat and dog studies were conducted to assess i.v. and p.o. (oral) exposure.

[5] = target: MetAP1 (Homo sapiens, UniProt P53582); experiment: MetAP1 IC50; assay type: biochemical; settings: second value of the cell; read-out: MetAP2/MetAP1 IC50 (nM): MetAP1
[6] = Plasma protein binding, rat; assay type: in vitro ADME; settings: read-out: Plasma protein binding (h/r/m, %): r (converted)
[7] = test system: 72 receptors and enzymes; experiment: CEREP screen; settings: at 10 μM across 72 receptors and enzymes
[8] = test system: CYP (isoform not given); experiment: CYP IC50, HLM; assay type: in vitro ADME; settings: human, human liver microsomes

With `CCN(CC)C/C=C\c1cc(F)ccc1S(=O)(=O)Nc1ccc2c(c1C(=O)O)OC[C@@H]1C[C@H]21` (single isomer, unassigned) [Example 12] as the compound, how does the fraction unbound [1] read?
Its fraction unbound is greater than 0.3.

What about the solubility [2] of the same compound?
Its solubility is roughly 100 µg/mL (≈ 211 µM).

What about the IC50 [3] of the same compound?
Its IC50 is 25 nM.

What about the Kp ([4]; liver/plasma, po, read-out: liver/plasma ratio) of the same compound?
Its Kp is 38.

And the clearance ([4]; plasma, iv)?
Its clearance is 126 mL/min/kg.

And the half-life ([4]; plasma, iv, read-out: Plasma T1/2 (converted))?
Its half-life is 54 min.

And the Vd ([4]; plasma, iv, read-out: Vss)?
Its Vd is 3.1 L/kg.

What about the AUC ([4]; plasma, po) of the same compound?
Its AUC is 497 ng·h/mL.

And the bioavailability ([4]; plasma, po)?
Its bioavailability is 53%.

And the IC50 [5]?
Its IC50 is 50000 nM.

What about the fraction unbound [6] of the same compound?
The fraction unbound was 0.189.

And the “CEREP screen, inhibition” value [7]?
Its value is less than 35% inhibition at 10 μM.

What about the IC50 [8] of the same compound?
Its IC50 is greater than 10 µM.
